According to patent publication US20170273949A1, “AGENT FOR PREVENTING AND/OR TREATING OPHTHALMOLOGIC DISEASES” (MITSUBISHI TANABE PHARMA CORPORATION, priority 2014, published 2017):

Key:
[1] = tested on: human retinal microvascular endothelial cells (HRMECs); experiment: VEGF-induced cell growth of HRMECs (cell counting kit-8); type: cell-based; details: edaravone 1, 10 or 100 μM added 1 hour before VEGF 10 ng/mL, 24 hours, control without VEGF = 100%, FIG. 2
Experimental: Using CSC Complete Recombinant Medium, human retinal microvascular endothelial cells (HRMECs) were plated at a cell density of 2×10^3 cells/well on a 96-well plate. Twenty-four hours after plating, the medium was exchanged with a CSC medium containing 10% fetal bovine serum (FBS). Then, twenty-four hours after the medium exchange, edaravone was added in a final concentration of 1, 10 or 100 μM to an edaravone addition group. One hour after the addition of edaravone, to a vascular endothelial growth factor (VEGF) addition group, VEGF was added in a final concentration of 10 ng/mL. Twenty-four hours after the addition of VEGF, in order to remove the reagent and VEGF, the medium was exchanged again with a CSC medium containing 10% FBS. After completion of the medium exchange, cell counting kit-8 was added, and the absorbance at 450 nm was then measured (defined as “measurement value 1”). Three hours after the measurement of the absorbance, the second absorbance measurement was carried out (defined as “measurement value 2”). The measurement value 1 was subtracted from the measurement value 2, and the obtained value was then corrected, using a control group, to which VEGF had not been added, as 100%. The thus obtained value was defined as a growth rate. The cells were cultured under conditions of 37° C. and 5% CO2, except for the operations.

[2] = tested on: mouse models induced to have choroidal neovascularization (CNV) by laser irradiation (CNV models); experiment: laser-induced choroidal neovascularization (CNV) mouse model, area of CNV; type: in vivo; details: mice; 3 mg/kg or 10 mg/kg edaravone into the caudal vein immediately after laser irradiation; choroidal flat mount 14 days after irradiation; FIG. 1A, 1B
Experimental: In such CNV models, macrophages migrate as a result of provocation of inflammation by laser irradiation. Consequently, VEGF is generated, and new blood vessels are formed.
A 10-fold dilution of a mixed anesthetic solution of ketamine and xylazine (7:1) was administered at a dose of 10 mL/kg into the femoral muscle of each mouse, and one eye was then irradiated with laser at 6 sites with equal intervals on the circumference of discus nervi optici (wave length: 647 nm, spot size: 50 μm, irradiation time: 100 msec, and laser output: 120 mW). Immediately after the laser irradiation, 3 mg/kg edaravone, 10 mg/kg edaravone, or 10 mL/kg normal saline was administered into the caudal vein of each mouse. Thereafter, fundus photography was carried out using a fundus camera. Fourteen days after the laser irradiation, a 10-fold dilution of Fluorescite (registered trademark) Injection Solution No. 1 was administered at a dose of 0.5 mL/kg into the caudal vein under the same anesthesia as described above, and fluorescein fundus photography was then carried out using a fundus camera. […] The expression of CNV was evaluated by choroidal flat mount. Using a confocal laser scanning microscope, the CNV was photographed, and the area of CNV was then measured. […]

SMILES: CC1=NN(c2ccccc2)C(=O)C1 [edaravone, 3-methyl-1-phenyl-2-pyrazolin-5-one]
- cell growth induced by VEGF (growth rate) [1]: suppressed
- CNV formation (area of CNV) [2]: inhibited
